Results reported in PubChem BioAssay (NCI).
“And” between values parts separate entries of the source, which are not always exact repeats. Equal values may be shown once.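 Cells were grown in 96-well plates and exposed to each compound for 48 hours at five concentrations; endpoints were interpolated linearly between bracketing concentrations, or set to the highest concentration if not reached. GI50 marks 50% less growth. At the TGI there is no net growth.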

How the values were obtained:
Assay in all cases: growth of human tumour cells (NCI), 48 h
[1] = tested on: CAKI-1 renal
[2] = tested on: HCT-116 colon
[3] = tested on: HCT-15 colon
[4] = tested on: HL-60(TB) leukemia
[5] = tested on: KM12 colon
[6] = tested on: MDA-MB-435
[7] = tested on: NCI-H522 lung
[8] = tested on: T-47D breast

Row | SMILES | GI50 [1] [nM] | TGI [1] | GI50 [2] [nM] | TGI [2] | GI50 [3] [nM] | TGI [3] | GI50 [4] [nM] | TGI [4] | GI50 [5] [µM] | TGI [5] | GI50 [6] [nM] | TGI [6] | GI50 [7] [nM] | TGI [7] | GI50 [8] [nM] | TGI [8]
1 | C=C1C(=O)O[C@H]2[C@H]1CC/C(COC(=O)NCc1cccc(OC)c1)=C\CC[C@@]1(C)O[C@@H]21 | 1620 | 3.62 µM | 1270 | 2.76 µM | 1380 | 2.82 µM | 1210 | 4.51 µM | 9.98 | 25.3 µM | 1500 | 3.22 µM | 1220 | 2.8 µM | 2310 | 6.38 µM
2 | Cc1cccc2cc3ccc4ccccc4c3cc12 | – | > 100 µM | – | > 100 µM | – | > 100 µM | – | 52 µM | – | > 100 µM | – | > 100 µM | – | 95.5 µM | – | > 100 µM
3 | CN1CCN(c2ccc([N+](=O)[O-])c3no[n+]([O-])c23)CC1 | 137 | 1.6 µM and 0.92 µM | 152 | 1.63 µM and 0.634 µM | 227 | 2.15 µM and 1.21 µM | 32.2 | 0.157 µM and 0.155 µM | 0.144 | 1.6 µM and 0.291 µM | 642 | 2.51 µM and 1.99 µM | 115 | 0.507 µM and 0.26 µM | 600 | 1.16 µM and 2.65 µM
4 | C[C@@H]1CCC2[C@@H](C)[C@H](OC(=O)CCC(=O)NCCNC(=O)Cc3cc(=O)oc4cc(N(C)C)ccc34)O[C@@H]3O[C@]4(C)CC[C@@H]1C23OO4 (stereo not given in full) | 2640 | > 25.6 µM | 323 | 12.8 µM | 318 | 21 µM | 301 | 6.77 µM | 0.432 | 16.3 µM | 472 | 16.8 µM | 731 | 11.1 µM | 862 | 50.2 µM
5 | COc1cc2c(cc1-c1c(C)noc1C)ncc1[nH]c(=O)n([C@H](C)c3ccccn3)c12 | 93.9 | > 100 µM | 1940 | > 100 µM | 807 | > 100 µM | 144 | > 100 µM | 3.01 | > 100 µM | 474 | > 100 µM | 97.5 | 7.07 µM | 1220 | > 100 µM
6 | CC(C)c1ccc(O)c(O)c(=O)c1 (tested in a mixture with another compound) | – | > 52.2 µM | – | > 42.9 µM | – | > 100 µM | – | 2.39 µM | – | > 82.1 µM | – | > 100 µM | – | 17.5 µM | – | > 68.6 µM
7 | O=C1C(Cl)=C(Nc2ccc3c(c2NC2=C(Cl)C(=O)c4ccccc4C2=O)C(=O)c2ccccc2C3=O)C(=O)c2ccccc21 | – | – | – | – | 1620 | 4.19 µM | 2360 | 14 µM | 2.98 | 15 µM | 346 | 1.04 µM | 2480 | 8.7 µM | 2190 | 5.99 µM
8 | COc1ccc(-c2cc3nccn3c(Nc3ncccc3C(N)=O)n2)cc1OC | 274 | > 100 µM | 516 | > 47.4 µM | 659 | > 100 µM | 2130 | 24.2 µM | 2.62 | 27.3 µM | – | – | 1180 | > 100 µM | > 100000 | > 100 µM
9 | C=C(C)C(=O)N1c2ccc(OC)cc2CC1C(=O)OCC (stereo not given) | – | > 100 µM | – | > 100 µM | – | > 100 µM | – | – | – | > 100 µM | – | – | – | > 100 µM | – | > 100 µM
10 | CN(C)CCC(=O)NCc1c2nc3ccccc3nc2n2ccccc12 | 60600 | > 100 µM | 21000 | 59.7 µM | 48400 | > 100 µM | 58100 | > 100 µM | 26 | > 100 µM | 67800 | > 100 µM | 66100 | > 100 µM | > 100000 | > 100 µM
11 | C=C(C)C1CCC2(CO)C(O)CC3(C)C(CCC4C5(C)CCC(O)C(C)(C)C5CCC43C)C12 (stereo not given) | – | > 100 µM | – | 73.7 µM | – | 88 µM | – | > 100 µM | – | > 100 µM | – | 38.3 µM | – | 42.4 µM | – | 11.3 µM
12 | Cc1ccc2oc(=O)cc(C3c4ccc([nH]4)C(c4cc(=O)oc5ccc(C)cc45)c4ccc([nH]4)C(c4cc(=O)oc5ccc(C)cc45)c4ccc([nH]4)C(c4cc(=O)oc5ccc(C)cc45)c4ccc3[nH]4)c2c1 (stereo not given) | 80.6 | 1.79 µM | 29.5 | 0.28 µM | 31.7 | 1.21 µM | – | – | – | – | – | – | 212 | 0.796 µM | 43.4 | 2.99 µM
13 | O=C1C(Nc2cccc(O)c2)=C(Sc2ccc(Cl)cc2)C(=O)N1Cc1ccccc1 | 18600 | 38.9 µM | 5450 | 33.2 µM | 10200 | 33.9 µM | – | – | 10.6 | 27.8 µM | 6430 | 20 µM | 21300 | > 100 µM | 29100 | > 100 µM
14 | NCCCn1c2c(c3ccc([N+](=O)[O-])cc3c1=O)C(=O)c1cc(Cl)ccc1-2 | < 10 | 0.317 µM | < 10 | 0.0182 µM | 28.5 | 0.208 µM | < 10 | < 0.016 µM | < 0.0283 | 0.174 µM | – | – | – | – | < 10 | 1.2 µM
15 | CC1CCC(C#N)(NOC2=NCCN2)CC1 (stereo not given) | 16200 | 33.8 µM | 63800 | > 100 µM | 27800 | > 100 µM | 34500 | > 100 µM | 42.6 | > 100 µM | 29200 | > 100 µM | 39600 | > 100 µM | – | –
16 | COc1ccc(NCc2c(O)ccc3ccccc23)cc1 | – | 67.1 µM | – | > 100 µM | – | > 100 µM | – | – | – | > 100 µM | – | > 100 µM | – | 28 µM | – | 55.1 µM
17 | CCOC(CN(C)C(=O)OCC(Cl)(Cl)Cl)OCC | – | > 100 µM | – | > 100 µM | – | > 100 µM | – | 59.1 µM | – | > 100 µM | – | > 100 µM | – | > 100 µM | – | –
18 | CC(C)[C@H](O)C(=O)N[C@H]1Cc2ccc3c(c2)[C@]24C5=C(N=C(O5)[C@H](C(C)C)NC1=O)c1nc(Cl)c(o1)-c1c(Cl)[nH]c5cccc(c15)-c1cccc2c1N[C@H]4O3 | 4.68 | 3.29 µM | < 1 | – | – | > 10 µM | – | – | – | – | – | – | – | 0.00562 µM | – | > 10 µM
19 | C#CCOc1cccc(Nc2ncnc3c2ncn3C2CCN(C(=O)CCl)C2)c1 (stereo not given) | 16800 | 30.7 µM | 22700 | 59.8 µM | 16500 | 39.6 µM | 19400 | 41.8 µM | 23.4 | 58.2 µM | 20400 | 53.5 µM | 5020 | 19.7 µM | – | –
